{"source": "patent US20180256673A1", "about": "“METHODS FOR TREATING FUNGAL INFECTIONS” (priority 2015, published 2018)", "key": {"Candida dubliniensis": {"tested_on": "Candida dubliniensis", "experiment": "Broth microdilution of invasive fungal isolates (CLSI M27-A3/M38-A2)", "assay_type": "cell-based", "settings": "11 isolates"}, "Candida krusei": {"tested_on": "Candida krusei", "experiment": "Broth microdilution of invasive fungal isolates (CLSI M27-A3/M38-A2)", "assay_type": "cell-based", "settings": "16 isolates"}, "[1]": {"tested_on": "Cryptococcus neoformans var. grubii", "experiment": "Broth microdilution of invasive fungal isolates (CLSI M27-A3/M38-A2)", "assay_type": "cell-based", "settings": "19 isolates"}, "C. krusei ATCC 6258 [2]": {"tested_on": "C. krusei ATCC 6258", "experiment": "microbe, parasite or virus in culture", "assay_type": "cell-based, Candida krusei", "settings": "Pichia kudriavzevii"}, "Candida albicans": {"tested_on": "Candida albicans", "experiment": "Broth microdilution of invasive fungal isolates (CLSI M27-A3/M38-A2)", "assay_type": "cell-based"}, "C. parapsilosis CP02": {"tested_on": "C. parapsilosis CP02", "experiment": "microbe, parasite or virus in culture", "assay_type": "cell-based, Candida parapsilosis", "settings": "Lodderomyces parapsilosis"}, "C. krusei ATCC 6258 [3]": {"tested_on": "C. krusei ATCC 6258", "assay_type": "cell-based, Candida krusei", "procedure": "Spontaneous mutant selection. […] Three individual colonies from each strain were used to start cultures in RPMI. […] One milliliter aliquots were spread onto SDA plates containing drug with sterile glass beads. Starting viable count was enumerated by triplicate plating of serial dilutions of the starting inoculum. […] Glycerol stocks of putative mutant colonies were stored at −80° C. […] Spontaneous mutation frequencies were calculated by dividing the number of resistant colonies on a given plate by the starting inoculum plated. A subset of mutants (weighted heavily towards those selected with CMP1) were then evaluated by MIC and sequencing of FKS gene hot spot regions."}, "Candida orthopsilosis": {"tested_on": "Candida orthopsilosis", "experiment": "Broth microdilution of invasive fungal isolates (CLSI M27-A3/M38-A2)", "assay_type": "cell-based", "settings": "10 isolates"}, "[4]": {"tested_on": "C. tropicalis vaginal isolates", "experiment": "Susceptibility testing of VVC clinical isolates at pH 7 and 4 (CLSI M27-A3)", "assay_type": "cell-based", "settings": "Candida tropicalis"}}, "note": "Values joined by “and” are separate entries in the source; they are usually repeats but may differ in a detail not shown here. Identical values can stand only once. Like-named read-outs stand apart in the source and are kept apart here. Starred links: 1 amine or outer side, 2 acyl side, 3 side chain; linkers in the order of their positions; H or OH if unused. Positions of bridges follow the written chain, without caps; N, C: chain ends. Non-standard residues stand in square brackets, D forms with d. Residues, ends and D or L forms follow the SMILES beside them. *: point of attachment. Orn(4R-OH,5R-OCH2CH2NMe3+) = C[N+](C)(C)CCO[C@@H](N[*:3])[C@H](O)C[C@H](N[*:1])C(=O)[*:2]; pTerphenylCO(4''-OnC5H11) = CCCCCOc1ccc(-c2ccc(-c3ccc(C(=O)*)cc3)cc2)cc1; hTyr(3S-OH,4S-OH) = N[C@H](C(=O)O)[C@H](O)[C@@H](O)c1ccc(O)cc1; Pro(3S-OH,4S-Me) = C[C@H]1CN[C@H](C(=O)O)[C@H]1O; Hyp = O=C(O)[C@@H]1C[C@@H](O)CN1"}
{"smiles": "CCCCCOc1ccc(-c2ccc(-c3ccc(C(=O)N[C@H]4C[C@@H](O)[C@@H](OCC[N+](C)(C)C)NC(=O)[C@@H]5[C@@H](O)[C@@H](C)CN5C(=O)[C@H]([C@@H](C)O)NC(=O)[C@H]([C@H](O)[C@@H](O)c5ccc(O)cc5)NC(=O)[C@@H]5C[C@@H](O)CN5C(=O)[C@H]([C@@H](C)O)NC4=O)cc3)cc2)cc1", "note": "[Compound 1] ({pTerphenylCO(4''-OnC5H11)}-[Orn(4R-OH,5R-OCH2CH2NMe3+)]T[Hyp][hTyr(3S-OH,4S-OH)]T[Pro(3S-OH,4S-Me)]; lactam 1-C)", "values": [{"measurement": "Cumulative % of isolates inhibited at MIC 0.03 μg/mL", "setting": "Candida dubliniensis", "value": "(54.5) %"}, {"measurement": "Cumulative % of isolates inhibited at MIC 0.06 μg/mL", "setting": "Candida dubliniensis", "value": "(90.9) %"}, {"measurement": "Cumulative % of isolates inhibited at MIC 0.12 μg/mL", "setting": "Candida dubliniensis", "value": "(100.0) %"}, {"measurement": "Number of isolates inhibited at MIC 0.03 μg/mL", "setting": "Candida dubliniensis", "value": 6}, {"measurement": "Number of isolates inhibited at MIC 0.06 μg/mL", "setting": "Candida dubliniensis", "value": 4}, {"measurement": "Number of isolates inhibited at MIC 0.12 μg/mL", "setting": "Candida dubliniensis", "value": 1}, {"measurement": "MIC50", "setting": "Candida dubliniensis; Candida dubliniensis, read-out: MIC50", "value": 0.03, "unit": "µg/mL"}, {"measurement": "MIC90", "setting": "Candida dubliniensis; Candida dubliniensis, read-out: MIC90", "value": 0.06, "unit": "µg/mL"}, {"measurement": "Cumulative % of isolates inhibited at MIC 0.015 μg/mL", "setting": "Candida krusei", "value": "(18.8) %"}, {"measurement": "Cumulative % of isolates inhibited at MIC 0.03 μg/mL", "setting": "Candida krusei", "value": "(87.5) %"}, {"measurement": "Cumulative % of isolates inhibited at MIC 0.06 μg/mL", "setting": "Candida krusei", "value": "(100.0) %"}, {"measurement": "Number of isolates inhibited at MIC 0.015 μg/mL", "setting": "Candida krusei", "value": 3}, {"measurement": "Number of isolates inhibited at MIC 0.03 μg/mL", "setting": "Candida krusei", "value": 11}, {"measurement": "Number of isolates inhibited at MIC 0.06 μg/mL", "setting": "Candida krusei", "value": 2}, {"measurement": "concentration at which all isolates were inhibited", "setting": "Candida krusei", "value": "≤ 0.06", "unit": "µg/mL"}, {"measurement": "MIC50", "setting": "Candida krusei; Pichia kudriavzevii, read-out: MIC50", "value": 0.03, "unit": "µg/mL"}, {"measurement": "MIC90", "setting": "Candida krusei; Pichia kudriavzevii, read-out: MIC90", "value": 0.06, "unit": "µg/mL"}, {"measurement": "Cumulative % of isolates inhibited at MIC 8 μg/mL", "setting": "[1]", "value": "(31.6) %"}, {"measurement": "Cumulative % of isolates inhibited at MIC >8 μg/mL", "setting": "[1]", "value": "(100.0) %"}, {"measurement": "Number of isolates inhibited at MIC 8 μg/mL", "setting": "[1]", "value": 6}, {"measurement": "Number of isolates inhibited at MIC >8 μg/mL", "setting": "[1]", "value": 13}, {"measurement": "MIC50", "setting": "[1]; Cryptococcus neoformans, read-out: MIC50", "value": 8, "unit": "µg/mL"}, {"measurement": "MIC90", "setting": "[1]; Cryptococcus neoformans, read-out: MIC90", "value": 8, "unit": "µg/mL"}, {"measurement": "MIC", "setting": "C. krusei ATCC 6258 [2]; ATCC6258", "value": 0.125, "unit": "µg/mL"}, {"measurement": "MIC", "setting": "C. krusei ATCC 6258 [2]; ATCC6258, read-out: MIC P20", "value": 0.125, "unit": "µg/mL"}, {"measurement": "Cumulative % of isolates inhibited at MIC 0.015 μg/mL", "setting": "Candida albicans; 251 isolates", "value": "(49.4) %"}, {"measurement": "Cumulative % of isolates inhibited at MIC 0.03 μg/mL", "setting": "Candida albicans; 251 isolates", "value": "(85.7) %"}, {"measurement": "Cumulative % of isolates inhibited at MIC 0.06 μg/mL", "setting": "Candida albicans; 251 isolates", "value": "(96.8) %"}, {"measurement": "Cumulative % of isolates inhibited at MIC 0.12 μg/mL", "setting": "Candida albicans; 251 isolates", "value": "(100.0) %"}, {"measurement": "Cumulative % of isolates inhibited at MIC ≤0.008 μg/mL", "setting": "Candida albicans; 251 isolates", "value": "(6.8) %"}, {"measurement": "Number of isolates inhibited at MIC 0.015 μg/mL", "setting": "Candida albicans; 251 isolates", "value": 107}, {"measurement": "Number of isolates inhibited at MIC 0.03 μg/mL", "setting": "Candida albicans; 251 isolates", "value": 91}, {"measurement": "Number of isolates inhibited at MIC 0.06 μg/mL", "setting": "Candida albicans; 251 isolates", "value": 28}, {"measurement": "Number of isolates inhibited at MIC 0.12 μg/mL", "setting": "Candida albicans; 251 isolates", "value": 8}, {"measurement": "Number of isolates inhibited at MIC ≤0.008 μg/mL", "setting": "Candida albicans; 251 isolates", "value": 17}, {"measurement": "MIC50", "setting": "Candida albicans; Candida albicans, 251 isolates, read-out: MIC50", "value": 0.03, "unit": "µg/mL"}, {"measurement": "MIC90", "setting": "Candida albicans; Candida albicans, 251 isolates, read-out: MIC90", "value": 0.06, "unit": "µg/mL"}, {"measurement": "concentration at which all isolates were inhibited", "setting": "Candida albicans; all 251 isolates", "value": "≤ 0.12", "unit": "µg/mL"}, {"measurement": "MIC", "setting": "C. parapsilosis CP02; CP02, CP02 P20-1, selecting drug ANID", "value": 4, "unit": "µg/mL"}, {"measurement": "MIC", "setting": "C. parapsilosis CP02; CP02, CP02 P20-1, selecting drug CMP1", "value": 4, "unit": "µg/mL"}, {"measurement": "MIC", "setting": "C. parapsilosis CP02; CP02, read-out: MIC P20, CP02, total population after 20 passages with the selecting drug, MIC of selecting drug", "value": 4, "unit": "µg/mL"}, {"measurement": "Median mutation frequency", "setting": "C. krusei ATCC 6258 [3]", "value": "3.86E−09"}, {"measurement": "Plate concentration", "setting": "C. krusei ATCC 6258 [3]; SDA, minimum concentration to cleanly inhibit growth", "value": 0.25, "unit": "µg/mL"}, {"measurement": "Freq. (replicate mutation frequency)", "setting": "C. krusei ATCC 6258 [3]; replicate plates 1-3, listed as CMP1", "value": "1.54E−08 and 3.51E−09 and 3.86E−09"}, {"measurement": "Cumulative % of isolates inhibited at MIC 0.12 μg/mL", "setting": "Candida orthopsilosis", "value": "(10.0) %"}, {"measurement": "Cumulative % of isolates inhibited at MIC 0.25 μg/mL", "setting": "Candida orthopsilosis", "value": "(40.0) %"}, {"measurement": "Cumulative % of isolates inhibited at MIC 0.5 μg/mL", "setting": "Candida orthopsilosis", "value": "(50.0) %"}, {"measurement": "Cumulative % of isolates inhibited at MIC 1 μg/mL", "setting": "Candida orthopsilosis", "value": "(90.0) %"}, {"measurement": "Cumulative % of isolates inhibited at MIC 2 μg/mL", "setting": "Candida orthopsilosis", "value": "(100.0) %"}, {"measurement": "Number of isolates inhibited at MIC 0.12 μg/mL", "setting": "Candida orthopsilosis", "value": 1}, {"measurement": "Number of isolates inhibited at MIC 0.25 μg/mL", "setting": "Candida orthopsilosis", "value": 3}, {"measurement": "Number of isolates inhibited at MIC 0.5 μg/mL", "setting": "Candida orthopsilosis", "value": 1}, {"measurement": "Number of isolates inhibited at MIC 1 μg/mL", "setting": "Candida orthopsilosis", "value": 4}, {"measurement": "Number of isolates inhibited at MIC 2 μg/mL", "setting": "Candida orthopsilosis", "value": 1}, {"measurement": "MIC50", "setting": "Candida orthopsilosis; Lodderomyces orthopsilosis, read-out: MIC50", "value": 0.5, "unit": "µg/mL"}, {"measurement": "MIC90", "setting": "Candida orthopsilosis; Lodderomyces orthopsilosis, read-out: MIC90", "value": 1, "unit": "µg/mL"}, {"measurement": "MIC90", "setting": "[4]; 24 h, pH 4", "value": 0.5, "unit": "µg/mL"}, {"measurement": "MIC90", "setting": "[4]; 24 h, pH 7", "value": 0.125, "unit": "µg/mL"}, {"measurement": "MIC90", "setting": "[4]; 48 h, pH 4", "value": 2, "unit": "µg/mL"}, {"measurement": "MIC90", "setting": "[4]; 48 h, pH 7", "value": 0.125, "unit": "µg/mL"}]}
